Results as given in patent US11639350B2, “Heteroaryldihydropyrimidine derivatives and methods of treating hepatitis B infections” (Janssen Pharmaceutica NV, priority 2018, dated 2023).

Columns and labels:
[1] = Cytotoxicity determination in HepG2.2.15 cells (CCK-8); assay type: cell-based; settings: human, 6 days of compound treatment, CCK-8, highest concentration 100 μM
Experimental: (§1) HBV replication inhibition by the compounds of this invention as well as cytotoxicity determination was determined in cells infected or transfected with HBV, or cells with stably integrated HBV, such as HepG2.2.15 cells (Sells et al. 1987). The method used herein is as follows.
(§2) The HepG2.2.15 cells were seeded into 96-well plate in 2% FBS (Fetal bovine serum) culture medium at the density of 40,000 cells/well and 5,000 cells/well for HBV inhibitory activity and cytotoxicity determination, respectively. After seeding, the cell plates were incubated at 37° C., 5% CO2 overnight. The next day, medium containing compounds were added to treat the cells for 6 days with medium refreshed once in the middle of the treatment. Eight dose points with 3 folds dilution of each compound were adopted and the highest concentration of the compounds was 10 μM and 100 μM for HBV inhibitory activity and cytotoxicity determination, respectively.
After 6 days of compounds treatment, 20 μl CCK-8 (Cell Counting Kit-8 (Tianjin Biolite company)) reagents were added to each well of cytotoxicity assay plates, the plate was incubated at 37° C., 5% CO2 for 2.5 hours and the absorbance at 450 nm wavelength was measured, at the same time the absorbance at 630 nm wavelength was read as reference.
(§3) EC50 and CC50 values are calculated by the GraphPad Prism software and are averages where multiple measurements were made. EC50 values for the other exemplified compounds were either not measured or higher than 1 μM.

HBV = HBV inhibitory activity: HBV DNA in the culture medium of HepG2.2.15 cells by q-PCR; assay type: cell-based; settings: Hepatitis B virus, HepG2.2.15, 144 h, HepG2.2.15 cells, 6 days of compound treatment, HBV DNA in culture medium by q-PCR, highest concentration 10 μM; read-out: EC50
Experimental: as §1, §2
The HBV DAN change in the cell culture medium induced by the compounds was measured by q-PCR (quantitative polymerase chain reaction) method. The HBV DNA in the culture medium was extracted using QIAamp 96 DNA Blood Kit according to the manual and then quantified by q-PCR using the primers and probe in the table below: […]
as §3

Compound | CC50 at 6 days [1] [nM] | EC50 (HBV) [nM]
COC(=O)C1=C(C2CN(S(=O)(=O)c3ccccc3)C2)NC(c2nccs2)=NC1c1ccc(F)cc1Cl (single isomer, unassigned) [Compound 130A, 6-(1-Benzenesulfonyl-azetidin-3-yl)-4-(2-chloro-4-fluoro-phenyl)-2-thiazol-2-yl-1,4-dihydro-pyrimidine-5-carboxylic acid methyl ester] | > 10000 | 317
COC(=O)C1=C([C@H]2CC[C@H](NS(C)(=O)=O)CC2)NC(c2ncc(F)cc2F)=NC1c1ccc(F)cc1Cl (single isomer, unassigned) [Compound 396B, (trans)-Methyl 4-(2-chloro-4-fluorophenyl)-2-(3,5-difluoropyridin-2-yl)-6-(4-(methylsulfonamido)cyclohexyl)-1,4-dihydropyrimidine-5-carboxylate] | 22500 | 20
COC(=O)C1=C([C@H]2CC[C@H](NS(=O)(=O)CCCO)CC2)NC(c2nccs2)=NC1c1ccc(F)c(F)c1Cl (relative stereo) [Compound 253B, (trans)-Methyl 4-(2-chloro-3,4-difluorophenyl)-6-(4-(3-hydroxypropylsulfonamido)cyclohexyl)-2-(thiazol-2-yl)-1,4-dihydropyrimidine-5-carboxylate] | 13700 | 8
COC(=O)C1=C(C2C[C@@H]3CN(S(C)(=O)=O)C[C@@H]3C2)NC(c2nccs2)=NC1c1ccc(F)cc1Cl (single isomer, unassigned) [Compound 176A, Methyl 4-(2-chloro-4-fluorophenyl)-6-((cis)-2-(methylsulfonyl)-octahydrocyclopenta[c]pyrrol-5-yl)-2-(thiazol-2-yl)-1,4-dihydropyrimidine-5-carboxylate] | 19900 | 69
COCCNS(=O)(=O)[C@H]1CC[C@@H](C2=C(C(=O)OC)C(c3ccc(F)c(F)c3Cl)N=C(c3nccs3)N2)CC1 (single isomer, unassigned) [Compound 359B, (cis)-Methyl 4-(2-chloro-3,4-difluorophenyl)-6-(4-(N-(2-methoxyethyl)sulfamoyl)cyclohexyl)-2-(thiazol-2-yl)-1,4-dihydropyrimidine-5-carboxylate] | 10500 | 55
COC(=O)C1=C(C2CCCO2)NC(c2nccs2)=NC1c1ccc(F)cc1Cl (single isomer, unassigned) [Compound 70D, Methyl 4-(2-chloro-4-fluorophenyl)-6-(tetrahydrofuran-2-yl)-2-(thiazol-2-yl)-1,4-dihydropyrimidine-5-carboxylate] | 22600 | 140
COC(=O)C1=C(C2CCN(S(=O)(=O)[C@H]3C[C@H](C(C)(C)O)C3)CC2)NC(c2nccs2)=NC1c1ccc(F)cc1Cl (single isomer, unassigned) [Compound 244B, (trans)-Methyl 4-(2-chloro-4-fluorophenyl)-6-(1-((3-(2-hydroxypropan-2-yl)cyclobutyl)sulfonyl)piperidin-4-yl)-2-(thiazol-2-yl)-1,4-dihydropyrimidine-5-carboxylate] | 12300 | 6
COC(=O)C1=C(C23CC(NS(=O)(=O)CCO)(C2)C3)NC(c2nccs2)=NC1c1ccc(F)cc1Cl (stereo not shown) [Compound 390B, Methyl 4-(2-chloro-4-fluorophenyl)-6-(3-(2-hydroxyethylsulfonamido)bicyclo[1.1.1]pentan-1-yl)-2-(thiazol-2-yl)-1,4-dihydropyrimidine-5-carboxylate] | 45300 | 54
COCCS(=O)(=O)N1CCC(C2=C(C(=O)OC)C(c3ccc(F)cc3Cl)N=C(c3nccs3)N2)CC1 (stereo not shown) [Compound 215, Methyl 4-(2-chloro-4-fluorophenyl)-6-(1-((2-methoxyethyl)sulfonyl)piperidin-4-yl)-2-(thiazol-2-yl)-1,4-dihydropyrimidine-5-carboxylate] | 52700 | 51
CCOC(=O)C1=C([C@H]2CC[C@H](C(=O)NC)CC2)NC(c2nccs2)=NC1c1ccc(F)cc1Cl (single isomer, unassigned) [Compound 132A, trans-Ethyl 4-(2-chloro-4-fluorophenyl)-6-(4-(methylcarbamoyl)-cyclohexyl)-2-(thiazol-2-yl)-1,4-dihydropyrimidine-5-carboxylate] | 23900 | 472
COC(=O)C1=C(C2CN(S(=O)(=O)c3ccccc3)C2)NC(c2nccs2)=NC1c1ccc(F)cc1Cl (stereo not shown) [Compound 130, 6-(1-Benzenesulfonyl-azetidin-3-yl)-4-(2-chloro-4-fluoro-phenyl)-2-thiazol-2-yl-1,4-dihydro-pyrimidine-5-carboxylic acid methyl ester] | > 10000 | 550
COC(=O)C1=C(C2CCOCC2)NC(c2nccs2)=NC1c1cccc(F)c1Cl (single isomer, unassigned) [Compound 50B, 4-(2-Chloro-3-fluoro-phenyl)-6-(tetrahydro-pyran-4-yl)-2-thiazol-2-yl-1,4-dihydro-pyrimidine-5-carboxylic acid methyl ester] | 35600 | 270
COC(=O)C1=C(C2CC3CCC(C2)N3S(C)(=O)=O)NC(c2nccs2)=NC1c1cccc(F)c1Cl (single isomer, unassigned) [Compound 39B, 4-(2-Chloro-3-fluoro-phenyl)-6-(8-methanesulfonyl-8-aza-bicyclo[3.2.1]oct-3-yl)-2-thiazol-2-yl-1,4-dihydro-pyrimidine-5-carboxylic Acid Methyl Ester] | 30600 | 101
COC(=O)C1=C(C23CC(NS(=O)(=O)CC(O)CO)(C2)C3)NC(c2nccs2)=NC1c1ccc(F)cc1Cl (stereo not shown) [Compound 393B, Methyl 4-(2-chloro-4-fluorophenyl)-6-(3-(2,3-dihydroxypropylsulfonamido)bicyclo[1.1.1]pentan-1-yl)-2-(thiazol-2-yl)-1,4-dihydropyrimidine-5-carboxylate] | 85000 | 100
COC(=O)C1=C(C2CCN(S(=O)(=O)CC(O)CO)CC2)NC(c2nccs2)=NC1c1ccc(F)cc1Cl (single isomer, unassigned) [Compound 305A, Methyl 4-(2-chloro-4-fluorophenyl)-6-(1-((2,3-dihydroxypropyl)sulfonyl)piperidin-4-yl)-2-(thiazol-2-yl)-1,4-dihydropyrimidine-5-carboxylate] | 36200 | 47
COC(=O)C1=C(C2CCOCC2)NC(c2nccs2)=NC1c1ccc(F)cc1Cl (stereo not shown) [Compound 51, Methyl 4-(2-chloro-4-fluorophenyl)-6-(tetrahydro-2H-pyran-4-yl)-2-(thiazol-2-yl)-1,4-dihydropyrimidine-5-carboxylate] | 9900 | 112
CCOC(=O)C1=C(C2CCN(S(=O)(=O)[C@H]3C[C@H](C(=O)O)C3)CC2)NC(c2nccs2)=NC1c1cccc(F)c1Cl (stereo partly drawn) [Compound 319B, (trans)-3-((4-(6-(2-chloro-3-fluorophenyl)-5-(ethoxycarbonyl)-2-(thiazol-2-yl)-3,6-dihydropyrimidin-4-yl)piperidin-1-yl)sulfonyl)-cyclobutanecarboxylic Acid] | 31300 | 102
